{"source": "ChEMBL document CHEMBL1159093", "about": "“Discovery and optimization of RO-85, a novel drug-like, potent, and selective P2X3 receptor antagonist” (Bioorg Med Chem Lett, 2010)", "key": {"[1]": {"molecular_target": "L-type calcium channel (verapamil binding site) (Rattus norvegicus, UniProt P22002+P27732+Q02485)", "assay": "Displacement of [3H]verapamil from verapamil binding site of L-type calcium channel in rat cerebral cortex at 10 uM after 120 mins by scintillation counting", "type": "tissue-based", "conditions": "probe [3H]verapamil, read-out: Activity"}, "[2]": {"assay": "Oral bioavailability in rat", "type": "ADME, organism-based", "conditions": "in vivo"}, "[3]": {"molecular_target": "Galanin receptor type 2 (Homo sapiens) (UniProt O43603)", "sequence (O43603 whole entry)": "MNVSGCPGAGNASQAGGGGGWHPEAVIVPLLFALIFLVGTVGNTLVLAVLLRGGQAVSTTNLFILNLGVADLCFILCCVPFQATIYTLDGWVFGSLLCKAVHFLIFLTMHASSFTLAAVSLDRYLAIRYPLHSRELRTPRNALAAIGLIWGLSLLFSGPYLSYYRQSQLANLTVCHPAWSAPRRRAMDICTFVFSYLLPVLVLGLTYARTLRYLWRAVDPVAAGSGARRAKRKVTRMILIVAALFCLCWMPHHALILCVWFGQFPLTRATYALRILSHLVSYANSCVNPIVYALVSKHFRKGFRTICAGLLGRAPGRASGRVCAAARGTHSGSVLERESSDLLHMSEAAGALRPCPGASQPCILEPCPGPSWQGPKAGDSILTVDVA", "assay": "Displacement of [125I]galanin from human recombinant GAL2 receptor expressed in HEK293 cells at 10 uM after 120 mins by scintillation counting", "type": "cell-based"}, "[4]": {"molecular_target": "D(3) dopamine receptor (Homo sapiens) (UniProt P35462)", "assay": "Displacement of [3H]methyl-spiperone from human recombinant dopamine D3 receptor expressed in CHO cells at 10 uM after 60 mins by scintillation counting", "type": "cell-based"}, "[5]": {"molecular_target": "Prostaglandin E2 receptor EP2 subtype (Homo sapiens) (UniProt P43116)", "assay": "Displacement of [3H]PGE2 from human recombinant EP2 receptor expressed in HEK293 cells at 10 uM after 120 mins by scintillation counting", "type": "cell-based"}, "[6]": {"species": "Rattus norvegicus", "assay": "Displacement of [125I]a-dendrotoxin from potassium channel in rat cerebral cortex at 10 uM after 60 mins by scintillation counting", "type": "tissue-based"}, "[7]": {"molecular_target": "Prostacyclin receptor (Homo sapiens) (UniProt P43119)", "assay": "Displacement of [3H]iloprost from human recombinant IP receptor expressed in HEK293 cells at 10 uM after 60 mins by scintillation counting", "type": "cell-based"}, "[8]": {"molecular_target": "5-hydroxytryptamine receptor 2B (Homo sapiens) (UniProt P41595)", "sequence (P41595 whole entry)": "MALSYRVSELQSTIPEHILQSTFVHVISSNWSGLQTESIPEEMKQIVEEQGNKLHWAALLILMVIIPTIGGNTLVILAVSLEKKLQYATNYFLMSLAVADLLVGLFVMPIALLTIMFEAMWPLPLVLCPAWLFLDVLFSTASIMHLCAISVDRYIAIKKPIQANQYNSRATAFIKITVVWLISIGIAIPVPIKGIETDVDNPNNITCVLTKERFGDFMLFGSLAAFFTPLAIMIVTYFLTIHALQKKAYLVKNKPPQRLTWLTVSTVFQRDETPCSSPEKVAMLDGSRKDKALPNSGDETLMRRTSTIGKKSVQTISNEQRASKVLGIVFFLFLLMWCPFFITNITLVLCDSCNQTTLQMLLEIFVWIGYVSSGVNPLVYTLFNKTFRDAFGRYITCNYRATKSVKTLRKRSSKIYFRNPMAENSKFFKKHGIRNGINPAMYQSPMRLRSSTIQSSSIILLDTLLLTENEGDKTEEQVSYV", "assay": "Displacement of [125I](+/-)DOI from human recombinant 5HT2B receptor expressed in CHO cells at 10 uM after 60 mins by scintillation counting", "type": "cell-based"}, "[9]": {"molecular_target": "Nociceptin receptor (Homo sapiens) (UniProt P41146)", "sequence (P41146 whole entry)": "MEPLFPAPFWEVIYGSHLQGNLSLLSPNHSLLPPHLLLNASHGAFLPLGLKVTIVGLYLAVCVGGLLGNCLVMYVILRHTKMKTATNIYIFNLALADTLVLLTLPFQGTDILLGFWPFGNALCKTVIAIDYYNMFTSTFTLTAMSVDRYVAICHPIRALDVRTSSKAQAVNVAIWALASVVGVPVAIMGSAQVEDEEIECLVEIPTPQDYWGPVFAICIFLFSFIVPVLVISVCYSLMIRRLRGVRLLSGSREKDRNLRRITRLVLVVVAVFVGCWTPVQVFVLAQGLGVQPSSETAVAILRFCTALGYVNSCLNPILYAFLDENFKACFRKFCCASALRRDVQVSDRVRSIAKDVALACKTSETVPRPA", "assay": "Displacement of [3H]nociceptin from human recombinant NOP receptor expressed in HEK293 cells at 10 uM after 60 mins by scintillation counting", "type": "cell-based"}, "[10]": {"molecular_target": "Peroxisome proliferator-activated receptor gamma (Homo sapiens) (UniProt P37231)", "assay": "Displacement of [3H]rosiglitazone from human recombinant PPARgamma receptor expressed in Escherichia coli at 10 uM after 120 mins by scintillation counting"}, "[11]": {"molecular_target": "Neuropeptide Y receptor type 1 (Homo sapiens) (UniProt P25929)", "assay": "Displacement of [125I]peptideYY from neuropeptide Y1 receptor in human SK-N-MC cells at 10 uM after 120 mins by scintillation counting", "type": "cell-based"}, "[12]": {"molecular_target": "P2X purinoceptor 7 (Homo sapiens, UniProt Q99572)", "sequence (Q99572 whole entry)": "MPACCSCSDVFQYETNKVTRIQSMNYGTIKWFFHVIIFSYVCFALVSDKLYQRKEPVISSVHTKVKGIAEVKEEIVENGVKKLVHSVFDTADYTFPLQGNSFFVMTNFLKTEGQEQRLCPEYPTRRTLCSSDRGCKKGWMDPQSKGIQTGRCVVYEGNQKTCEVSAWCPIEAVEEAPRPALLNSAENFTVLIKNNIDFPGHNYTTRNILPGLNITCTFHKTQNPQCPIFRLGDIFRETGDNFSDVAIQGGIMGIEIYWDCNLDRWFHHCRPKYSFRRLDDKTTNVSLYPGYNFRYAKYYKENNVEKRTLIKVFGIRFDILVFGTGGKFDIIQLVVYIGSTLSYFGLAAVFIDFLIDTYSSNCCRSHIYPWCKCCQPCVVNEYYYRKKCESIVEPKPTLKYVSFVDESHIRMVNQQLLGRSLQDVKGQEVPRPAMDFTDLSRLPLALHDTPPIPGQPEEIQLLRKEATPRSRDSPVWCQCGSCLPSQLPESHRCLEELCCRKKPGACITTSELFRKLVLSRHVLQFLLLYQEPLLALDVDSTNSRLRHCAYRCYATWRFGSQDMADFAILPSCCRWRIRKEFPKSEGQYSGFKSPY", "assay": "Antagonist activity at P2X7 receptor", "type": "functional"}, "[13]": {"molecular_target": "Adenosine receptor A3 (Homo sapiens) (UniProt P0DMS8)", "assay": "Displacement of [125I]AB-MECA from human recombinant A3 receptor expressed in HEK293 cells at 10 uM after 120 mins by scintillation counting", "type": "cell-based"}, "[14]": {"molecular_target": "C-C chemokine receptor type 1 (Homo sapiens) (UniProt P32246)", "sequence (P32246 whole entry)": "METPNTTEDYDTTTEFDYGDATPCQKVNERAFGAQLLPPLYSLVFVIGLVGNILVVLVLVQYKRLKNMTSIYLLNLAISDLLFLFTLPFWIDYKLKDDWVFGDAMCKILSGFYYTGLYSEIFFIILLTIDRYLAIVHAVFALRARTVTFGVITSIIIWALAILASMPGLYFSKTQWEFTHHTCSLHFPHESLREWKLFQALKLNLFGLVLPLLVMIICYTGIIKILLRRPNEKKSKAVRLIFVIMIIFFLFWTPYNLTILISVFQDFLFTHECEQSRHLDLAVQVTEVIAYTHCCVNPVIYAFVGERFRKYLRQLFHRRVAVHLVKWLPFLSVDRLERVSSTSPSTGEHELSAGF", "assay": "Displacement of [125I]MIP-1a from human recombinant CCR1 receptor expressed in HEK293 cells at 10 uM after 120 mins by scintillation counting", "type": "cell-based"}, "[15]": {"molecular_target": "Histamine H2 receptor (Homo sapiens) (UniProt P25021)", "sequence (P25021 whole entry)": "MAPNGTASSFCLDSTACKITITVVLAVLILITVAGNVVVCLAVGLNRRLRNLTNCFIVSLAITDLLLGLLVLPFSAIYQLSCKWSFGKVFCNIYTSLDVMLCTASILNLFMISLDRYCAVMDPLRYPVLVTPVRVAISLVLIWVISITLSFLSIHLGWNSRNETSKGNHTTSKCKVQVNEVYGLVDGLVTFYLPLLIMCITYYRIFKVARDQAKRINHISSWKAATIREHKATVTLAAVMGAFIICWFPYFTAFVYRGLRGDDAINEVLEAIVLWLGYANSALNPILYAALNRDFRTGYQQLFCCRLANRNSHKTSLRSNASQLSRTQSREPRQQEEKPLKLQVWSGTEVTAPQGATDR", "assay": "Displacement of [125I]APT from human recombinant histamine H2 receptor expressed in CHO cells at 10 uM after 120 mins by scintillation counting", "type": "cell-based"}, "[16]": {"molecular_target": "D(4) dopamine receptor (Homo sapiens) (UniProt P21917)", "sequence (P21917 whole entry)": "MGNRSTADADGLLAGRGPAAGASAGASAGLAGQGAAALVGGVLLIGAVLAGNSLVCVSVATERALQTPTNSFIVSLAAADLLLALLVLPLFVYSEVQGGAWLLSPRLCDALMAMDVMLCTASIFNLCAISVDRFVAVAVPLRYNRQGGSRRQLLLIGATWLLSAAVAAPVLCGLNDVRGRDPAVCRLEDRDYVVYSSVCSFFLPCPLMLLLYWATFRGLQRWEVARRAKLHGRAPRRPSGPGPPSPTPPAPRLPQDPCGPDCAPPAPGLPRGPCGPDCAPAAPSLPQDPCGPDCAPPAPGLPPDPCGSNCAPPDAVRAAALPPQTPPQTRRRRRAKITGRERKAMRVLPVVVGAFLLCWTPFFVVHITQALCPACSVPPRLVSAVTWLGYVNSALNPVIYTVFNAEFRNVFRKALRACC", "assay": "Displacement of [3H]methyl-spiperone from human recombinant D4.4 receptor expressed in CHO cells at 10 uM after 60 mins by scintillation counting", "type": "cell-based"}, "[17]": {"molecular_target": "Neuromedin-K receptor (Homo sapiens) (UniProt P29371)", "assay": "Displacement of [3H]SR142801 from human recombinant NK3 receptor expressed in CHO cells at 10 uM after 120 mins by scintillation counting", "type": "cell-based"}, "[18]": {"species": "Rattus norvegicus", "assay": "Displacement of [35S]dATPaS from P2Y receptor in rat cerebral cortex at 10 uM after 60 mins by scintillation counting", "type": "tissue-based"}, "[19]": {"molecular_target": "Platelet-derived growth factor receptor (Mus musculus) (UniProt P05622+P26618)", "assay": "Displacement of [125I]PDGF BB from PDGFR in BALB/c mouse 3T3 cells at 10 uM after 180 mins by scintillation counting", "type": "cell-based"}, "[20]": {"molecular_target": "Endothelin-1 receptor (Homo sapiens) (UniProt P25101)", "sequence (P25101 whole entry)": "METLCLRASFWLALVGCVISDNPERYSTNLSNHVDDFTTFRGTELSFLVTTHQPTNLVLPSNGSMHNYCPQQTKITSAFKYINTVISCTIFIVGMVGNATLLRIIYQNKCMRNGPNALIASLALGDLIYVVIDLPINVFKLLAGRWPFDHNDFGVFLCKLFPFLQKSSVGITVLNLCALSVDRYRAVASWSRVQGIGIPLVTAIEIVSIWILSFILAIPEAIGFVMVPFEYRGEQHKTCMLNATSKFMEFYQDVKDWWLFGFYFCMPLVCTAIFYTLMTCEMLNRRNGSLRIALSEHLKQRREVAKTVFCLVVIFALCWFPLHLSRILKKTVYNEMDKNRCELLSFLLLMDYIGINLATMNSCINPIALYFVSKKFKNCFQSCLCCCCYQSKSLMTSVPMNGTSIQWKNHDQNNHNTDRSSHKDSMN", "assay": "Displacement of [125I]endothelin-1 from human recombinant ETA receptor expressed in CHO cells at 10 uM after 120 mins by scintillation counting", "type": "cell-based"}, "[21]": {"molecular_target": "Vasopressin V1a receptor (Homo sapiens) (UniProt P37288)", "sequence (P37288 whole entry, looked up)": "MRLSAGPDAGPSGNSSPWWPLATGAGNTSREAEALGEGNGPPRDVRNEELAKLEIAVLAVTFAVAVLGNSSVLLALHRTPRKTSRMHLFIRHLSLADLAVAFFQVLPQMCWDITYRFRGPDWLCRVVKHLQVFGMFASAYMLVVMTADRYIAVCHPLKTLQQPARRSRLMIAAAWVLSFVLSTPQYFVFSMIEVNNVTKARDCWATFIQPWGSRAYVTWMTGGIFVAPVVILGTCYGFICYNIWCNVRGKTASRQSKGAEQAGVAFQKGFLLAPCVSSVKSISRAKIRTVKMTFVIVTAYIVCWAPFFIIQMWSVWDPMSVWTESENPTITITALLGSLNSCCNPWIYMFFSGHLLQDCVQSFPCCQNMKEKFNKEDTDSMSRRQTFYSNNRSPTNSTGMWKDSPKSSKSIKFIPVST", "assay": "Displacement of [3H]AVP from human recombinant vasopressin V1a receptor expressed in CHO cells at 10 uM after 60 mins by scintillation counting", "type": "cell-based"}, "[22]": {"molecular_target": "Sodium-dependent serotonin transporter (Homo sapiens) (UniProt P31645)", "sequence (P31645 whole entry, looked up)": "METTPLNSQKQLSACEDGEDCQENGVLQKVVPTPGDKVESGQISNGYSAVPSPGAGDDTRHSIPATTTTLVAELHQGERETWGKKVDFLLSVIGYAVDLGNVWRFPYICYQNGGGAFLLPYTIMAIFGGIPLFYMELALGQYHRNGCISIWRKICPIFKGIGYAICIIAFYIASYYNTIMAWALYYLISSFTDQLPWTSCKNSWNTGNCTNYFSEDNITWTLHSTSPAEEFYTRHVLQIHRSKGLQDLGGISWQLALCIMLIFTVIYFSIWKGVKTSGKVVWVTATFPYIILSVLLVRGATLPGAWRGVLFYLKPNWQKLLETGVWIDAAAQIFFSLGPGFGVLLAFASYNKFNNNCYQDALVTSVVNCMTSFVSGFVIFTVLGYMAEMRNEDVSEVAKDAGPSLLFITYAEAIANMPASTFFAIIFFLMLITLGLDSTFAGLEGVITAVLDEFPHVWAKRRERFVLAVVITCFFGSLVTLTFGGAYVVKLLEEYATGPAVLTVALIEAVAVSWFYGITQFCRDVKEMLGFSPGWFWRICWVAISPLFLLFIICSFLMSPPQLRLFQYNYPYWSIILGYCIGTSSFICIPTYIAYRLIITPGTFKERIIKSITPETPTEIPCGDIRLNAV", "assay": "Displacement of [3H]imipramine from human recombinant SERT expressed in CHO cells at 10 uM after 60 mins by scintillation counting", "type": "cell-based"}, "[23]": {"species": "Rattus norvegicus", "assay": "Displacement of [125I][Tyr4]bombesin from Bombesin receptor in rat cerebral cortex at 10 uM after 60 mins by scintillation counting", "type": "tissue-based"}, "[24]": {"molecular_target": "Vasoactive intestinal polypeptide receptor 1 (Homo sapiens) (UniProt P32241)", "assay": "Displacement of [125I]VIP from human recombinant VPAC1 receptor expressed in CHO cells at 10 uM after 60 mins by scintillation counting", "type": "cell-based"}, "[25]": {"molecular_target": "D(1B) dopamine receptor (Homo sapiens) (UniProt P21918)", "assay": "Displacement of [3H]SCH 23390 from human recombinant dopamine D5 receptor expressed in rat GH4 cells at 10 uM after 60 mins by scintillation counting", "type": "cell-based"}, "[26]": {"molecular_target": "5-hydroxytryptamine receptor 7 (Homo sapiens) (UniProt P34969)", "assay": "Displacement of [3H]LSD from human recombinant 5HT7 receptor expressed in CHO cells at 10 uM after 120 mins by scintillation counting", "type": "cell-based"}, "[27]": {"molecular_target": "Tumor necrosis factor (Homo sapiens) (UniProt P01375)", "sequence (P01375 whole entry)": "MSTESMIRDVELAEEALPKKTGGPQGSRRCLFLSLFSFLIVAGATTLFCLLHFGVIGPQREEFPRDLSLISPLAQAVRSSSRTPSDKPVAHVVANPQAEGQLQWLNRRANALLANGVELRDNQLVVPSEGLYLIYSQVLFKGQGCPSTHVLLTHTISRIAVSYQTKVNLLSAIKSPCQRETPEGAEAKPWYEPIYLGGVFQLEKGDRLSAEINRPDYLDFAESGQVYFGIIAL", "assay": "Displacement of [125I]TNF-a from TNFalpha in human U937 cells at 10 uM after 120 mins by scintillation counting", "type": "cell-based", "conditions": "U-937"}, "[28]": {"molecular_target": "Endothelin receptor type B (Homo sapiens) (UniProt P24530)", "assay": "Displacement of [125I]endothelin-1 from human recombinant ETB receptor expressed in CHO cells at 10 uM after 120 mins by scintillation counting", "type": "cell-based"}, "[29]": {"assay": "Half life in po dosed rat", "type": "ADME, organism-based", "conditions": "in vivo"}}, "data": [{"smiles": "CC(=O)N1CCN(C[C@@H](C)NC(=O)c2cc3c(-c4ccccc4)nn(C)c3s2)CC1", "values": [{"measurement": "inhibition at 2 h, 10 µM", "setting": "[1]", "value": "> 50", "unit": "%"}, {"measurement": "bioavailability", "setting": "[2]", "value": 89, "unit": "%"}, {"measurement": "Activity", "setting": "[3]", "value": "> 50", "unit": "%"}, {"measurement": "Activity", "setting": "[4]", "value": "> 50", "unit": "%"}, {"measurement": "Activity", "setting": "[5]", "value": "> 50", "unit": "%"}, {"measurement": "Activity", "setting": "[6]", "value": "> 50", "unit": "%"}, {"measurement": "Activity", "setting": "[7]", "value": "> 50", "unit": "%"}, {"measurement": "Activity", "setting": "[8]", "value": "> 50", "unit": "%"}, {"measurement": "Activity", "setting": "[9]", "value": "> 50", "unit": "%"}, {"measurement": "Activity", "setting": "[10]", "value": "> 50", "unit": "%"}, {"measurement": "Activity", "setting": "[11]", "value": "> 50", "unit": "%"}, {"measurement": "IC50", "setting": "[12]", "value": "> 10", "unit": "µM"}, {"measurement": "Activity", "setting": "[13]", "value": "> 50", "unit": "%"}, {"measurement": "Activity", "setting": "[14]", "value": "> 50", "unit": "%"}, {"measurement": "Activity", "setting": "[15]", "value": "> 50", "unit": "%"}, {"measurement": "Activity", "setting": "[16]", "value": "> 50", "unit": "%"}, {"measurement": "Activity", "setting": "[17]", "value": "> 50", "unit": "%"}, {"measurement": "Activity", "setting": "[18]", "value": "> 50", "unit": "%"}, {"measurement": "Activity", "setting": "[19]", "value": "> 50", "unit": "%"}, {"measurement": "Activity", "setting": "[20]", "value": "> 50", "unit": "%"}, {"measurement": "Activity", "setting": "[21]", "value": "> 50", "unit": "%"}, {"measurement": "Activity", "setting": "[22]", "value": "> 50", "unit": "%"}, {"measurement": "Activity", "setting": "[23]", "value": "> 50", "unit": "%"}, {"measurement": "Activity", "setting": "[24]", "value": "> 50", "unit": "%"}, {"measurement": "Activity", "setting": "[25]", "value": "> 50", "unit": "%"}, {"measurement": "Activity", "setting": "[26]", "value": "> 50", "unit": "%"}, {"measurement": "Activity", "setting": "[27]", "value": "> 50", "unit": "%"}, {"measurement": "Activity", "setting": "[28]", "value": "> 50", "unit": "%"}, {"measurement": "half-life", "setting": "[29]", "value": 1.6, "unit": "h"}]}]}
